Reference: patent US20160355475A1, “NOVEL INDOLE DERIVATIVE COMPOUND AND PHARMACEUTICAL COMPOSITION COMPRISING THE SAME” (CHONG KUN DANG PHARMACEUTICAL CORP., priority 2014, published 2016)

How the values were obtained:
HDAC6 human recombinant = target: T1, HDAC6 human recombinant (Homo sapiens, UniProt Q9UBN7); assay: HDAC6 enzyme activity inhibition (fluorimetric, in vitro); assay type: biochemical; conditions: 37° C., 60 minutes; tested at 0.1, 1, 10, 100 and 1000 nM
T1 construct: purchased Calbiochem 382180
T1 sequence (Q9UBN7 1-1215): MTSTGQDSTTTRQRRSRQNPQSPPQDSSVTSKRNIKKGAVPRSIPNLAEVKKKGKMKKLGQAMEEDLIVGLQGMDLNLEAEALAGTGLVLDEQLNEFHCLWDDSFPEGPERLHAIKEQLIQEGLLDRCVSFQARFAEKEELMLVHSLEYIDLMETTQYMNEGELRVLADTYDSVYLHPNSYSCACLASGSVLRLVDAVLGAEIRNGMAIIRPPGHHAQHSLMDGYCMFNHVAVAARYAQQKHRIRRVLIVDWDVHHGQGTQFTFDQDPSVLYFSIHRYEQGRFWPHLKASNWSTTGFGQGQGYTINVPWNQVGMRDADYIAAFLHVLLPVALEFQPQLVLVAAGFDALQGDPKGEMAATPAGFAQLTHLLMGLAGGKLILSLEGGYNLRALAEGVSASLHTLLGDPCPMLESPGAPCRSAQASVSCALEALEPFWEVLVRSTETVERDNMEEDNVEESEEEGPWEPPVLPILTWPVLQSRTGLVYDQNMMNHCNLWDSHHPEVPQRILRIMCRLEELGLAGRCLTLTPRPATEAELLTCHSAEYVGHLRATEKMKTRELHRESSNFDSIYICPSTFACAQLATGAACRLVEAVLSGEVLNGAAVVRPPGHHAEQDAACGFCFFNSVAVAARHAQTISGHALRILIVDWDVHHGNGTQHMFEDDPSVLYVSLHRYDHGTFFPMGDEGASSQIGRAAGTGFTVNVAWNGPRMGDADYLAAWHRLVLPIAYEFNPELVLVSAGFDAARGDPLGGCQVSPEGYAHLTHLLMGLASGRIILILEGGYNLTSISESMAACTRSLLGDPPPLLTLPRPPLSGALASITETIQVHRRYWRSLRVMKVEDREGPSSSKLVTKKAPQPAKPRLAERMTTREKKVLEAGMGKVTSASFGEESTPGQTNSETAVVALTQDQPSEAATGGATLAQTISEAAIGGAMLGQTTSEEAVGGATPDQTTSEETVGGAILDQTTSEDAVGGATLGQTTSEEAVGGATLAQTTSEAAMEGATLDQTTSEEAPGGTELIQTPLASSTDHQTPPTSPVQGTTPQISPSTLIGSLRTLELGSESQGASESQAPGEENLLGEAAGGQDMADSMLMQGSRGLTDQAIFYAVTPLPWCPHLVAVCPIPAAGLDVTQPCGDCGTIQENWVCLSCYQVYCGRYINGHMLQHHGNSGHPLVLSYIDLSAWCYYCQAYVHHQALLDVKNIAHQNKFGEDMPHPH
Method: (§1) 1. Experiment on Activities in HDAC Enzymes (HDAC1 and HDAC6)
(§2) Assays were performed using a HDAC1 fluorimetric drug discovery assay kit (Enzolifesciences: BML-AK511) and a HDAC6 human recombinant (Calbiochem: 382180). The assay mixture of the kit was treated with each of the compounds of the Examples at concentrations 100, 1000 and 10000 nM for HDAC1 assay and 0.1, 1, 10, 100 and 1000 nM for HDAC6 assay. The treated assay mixture was allowed to react at 37° C. for 60 minutes, and then was treated with a developer and allowed to stand at 37° C. for 30 minutes, followed by quantification of the fluorescence. In Table 17, lower HDAC6 values (μM) indicate higher HDAC6 inhibitory activities of the compounds. Also, because selective HDAC6 inhibitors should not inhibit HDAC1 (μM), higher HDAC1 values indicate higher HDAC6 selectivity of the compounds.

HDAC1 = target: T2, HDAC1 (Homo sapiens, UniProt Q13547); assay: HDAC1 enzyme activity inhibition (HDAC1 fluorimetric drug discovery assay kit); assay type: biochemical; conditions: 37° C., 60 minutes; tested at 100, 1000 and 10000 nM
T2 construct: purchased Enzolifesciences BML-AK511
Method: as §1, §2

T2 sequence (Q13547 whole entry): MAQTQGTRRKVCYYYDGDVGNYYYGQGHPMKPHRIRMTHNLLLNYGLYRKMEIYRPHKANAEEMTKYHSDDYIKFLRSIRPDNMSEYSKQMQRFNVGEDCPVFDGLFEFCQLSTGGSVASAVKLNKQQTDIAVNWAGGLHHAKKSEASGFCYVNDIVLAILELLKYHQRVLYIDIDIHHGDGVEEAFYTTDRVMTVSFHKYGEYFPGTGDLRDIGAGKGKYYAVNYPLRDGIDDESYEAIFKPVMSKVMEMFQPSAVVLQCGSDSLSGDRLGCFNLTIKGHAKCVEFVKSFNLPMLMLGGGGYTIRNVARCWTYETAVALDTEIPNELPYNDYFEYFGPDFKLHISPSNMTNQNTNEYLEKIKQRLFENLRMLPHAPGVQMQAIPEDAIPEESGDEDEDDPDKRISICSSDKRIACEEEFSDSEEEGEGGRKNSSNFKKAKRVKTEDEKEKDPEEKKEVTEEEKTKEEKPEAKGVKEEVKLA

Structure (SMILES)	IC50 (HDAC6 human recombinant)	IC50 (HDAC1)
Cc1c(Cc2ccc(C(=O)NO)cc2)c2ccccc2n1CCN1CC[C@H](O)C1 [Compound 592, (S)—N-hydroxy-4-((1-(2-(3-hydroxypyrrolidin-1-yl)ethyl)-2-methyl-1H-indol-3-yl)methyl)benzamide]	16 nM	4950 nM
Cc1c(Cc2ccc(C(=O)NO)cc2)c2ccccc2n1CC1CCN(CC2(F)COC2)CC1 [Compound 609, 4-((1-((1-((3-Fluorooxetan-3-yl)methyl)piperidin-4-yl)methyl)-2-methyl-1H-indol-3-yl)methyl)-N-hydroxybenzamide]	5 nM	3630 nM
Cc1c(Cc2ccc(C(=O)NO)cc2)c2ccccc2n1CC1CCN(CC2(F)CCN(CC(C)(C)O)CC2)CC1 [Compound 613, 4-((1-((1-((4-fluoro-1-(2-hydroxy-2-methylpropyl)piperidin-4-yl)methyl)piperidin-4-yl)methyl)-2-methyl-1H-indol-3-yl)methyl)-N-hydroxybenzamide]	69 nM	6740 nM
CC(C)(F)CN1CCC(Cn2c(-c3cncnc3)c(Cc3ccc(C(=O)NO)cc3)c3ccccc32)CC1 [Compound 625, 4-((1-((1-(2-Fluoro-2-methylpropyl)piperidin-4-yl)methyl)-2-(pyrimidin-5-yl)-1H-indol-3-yl)methyl)-N-hydroxybenzamide]	71 nM	5720 nM
Cc1c(Cc2ccc(C(=O)NO)cc2)c2ccccc2n1CC1CCN(CC(C)(C)F)C1 (stereo not shown) [Compound 713, 4-((1-((1-(2-Fluoro-2-methylpropyl)pyrrolidin-3-yl)methyl)-2-methyl-1H-indol-3-yl)methyl)-N-hydroxybenzamide]	246 nM	> 10000 nM
Cc1c(Cc2ccc(C(=O)NO)cc2)c2ccccc2n1CC1CCN(CC2(F)CCN(C(C)C)CC2)CC1 [Compound 681, 4-((1-((1-((4-Fluoro-1-isopropylpiperidin-4-yl)methyl)piperidin-4-yl)methyl)-2-methyl-1H-indol-3-yl)methyl)-N-hydroxybenzamide]	37 nM	802 nM
Cc1c(Cc2ccc(C(=O)NO)cc2)c2ccccc2n1CCN1CCC[C@H]1CO [Compound 199, (S)—N-hydroxy-4-((1-(2-(2-(hydroxymethyl)pyrrolidin-1-yl)ethyl)-2-methyl-1H-indol-3-yl)methyl)benzamide]	4 nM	1260 nM
Cc1nccn1CCn1c(C)c(Cc2ccc(C(=O)NO)cc2)c2ccccc21 [Compound 201, N-hydroxy-4-((2-methyl-1-(2-(2-methyl-1H-imadazol-1-yl)ethyl)-1H-indol-3-yl)methyl)benzamide]	9 nM	2470 nM
Cc1c(Cc2ccc(C(=O)NO)cc2)c2ccccc2n1CCN1CCN(C)CC1 [Compound 154, N-hydroxy-4-((2-methyl-1-(2-(4-methylpiperazin-1-yl)ethyl)-1H-indol-3-yl)methyl)benzamide]	8 nM	2220 nM
Cc1c(Cc2ccc(C(=O)NO)cc2)c2ccccc2n1CCN1CCC(F)CC1 [Compound 553, 4-((1-(2-(4-Fluoropiperidin-1-yl)ethyl)-2-methyl-1H-indol-3-yl)methyl)-N-hydroxybenzamide]	39 nM	8100 nM
Cc1c(Cc2ccc(C(=O)NO)cc2)c2ccccc2n1CC1CCN(CC2(C(F)(F)F)CCC2)CC1 [Compound 728, N-hydroxy-4-((2-methyl-1-((1-((1-(trifluoromethyl)cyclobutyl)methyl)piperidin-4-yl)methyl)-1H-indol-3-yl)methyl)benzamide]	1190 nM	> 10000 nM
Cc1c(Cc2ccc(C(=O)NO)cc2)c2ccccc2n1CCN1CCN(CC(C)(C)F)CC1 [Compound 564, 4-((1-(2-(4-(2-Fluoro-2-methylpropyl)piperazin-1-yl)ethyl)-2-methyl-1H-indol-3-yl)methyl)-N-hydroxybenzamide]	25 nM	370 nM
Cc1c(Cc2ccc(C(=O)NO)cc2)c2ccccc2n1CC1CCN(Cc2ccccc2F)CC1 [Compound 620, 4-((1-((1-(2-Fluorobenzyl)piperidin-4-yl)methyl)-2-methyl-1H-indol-3-yl)methyl)-N-hydroxybenzamide]	306 nM	> 10000 nM
Cc1c(Cc2ccc(C(=O)NO)cc2)c2ccccc2n1CCCN1CCN(CC(C)(C)F)CC1 [Compound 640, 4-((1-(3-(4-(2-Fluoro-2-methylpropyl)piperazin-1-yl)propyl)-2-methyl-1H-indol-3-yl)methyl)-N-hydroxybenzamide]	115 nM	7600 nM
Cc1c(Cc2ccc(C(=O)NO)cc2)c2ccccc2n1CC1CCN(CC(C)(C)O)CC1 [Compound 608, N-hydroxy-4-((1-((1-(2-hydroxy-2-methylpropyl)piperidin-4-yl)methyl)-2-methyl-1H-indol-3-yl)methyl)benzamide]	7 nM	1070 nM
CCC(F)(CC)CN1CCC(CCn2c(C)c(Cc3ccc(C(=O)NO)cc3)c3ccccc32)CC1 [Compound 581, 4-((1-(2-(1-(2-Ethyl-2-fluorobutyl)piperidin-4-yl)ethyl)-2-methyl-1H-indol-3-yl)methyl)-N-hydroxybenzamide]	870 nM	> 10000 nM
Cc1c(Cc2ccc(C(=O)NO)cc2)c2ccccc2n1CC1CCN(CC2(F)CCN(C)CC2)CC1 [Compound 679, 4-((1-((1-((4-Fluoro-1-methylpiperidin-4-yl)methyl)piperidin-4-yl)methyl)-2-methyl-1H-indol-3-yl)methyl)-N-hydroxybenzamide]	13 nM	832 nM
Cc1c(Cc2ccc(C(=O)NO)cc2)c2ccccc2n1CC1CCN(CC2(C)COC2)CC1 [Compound 643, N-hydroxy-4-((2-methyl-1-((1-((3-methyloxetan-3-yl)methyl)piperidin-4-yl)methyl)-1H-indol-3-yl)methyl)benzamide]	28 nM	4580 nM
COC[C@@H]1CCCN1CCn1c(C)c(Cc2ccc(C(=O)NO)cc2)c2ccccc21 [Compound 200, (S)—N-hydroxy-4-((1-(2-(2-(methoxymethyl)pyrrolidin-1-yl)ethyl)-2-methyl-1H-indol-3-yl)methyl)benzamide]	8 nM	2610 nM
Cc1c(Cc2ccc(C(=O)NO)cc2)c2ccccc2n1CCN1CC[C@H](F)C1 [Compound 593, (S)-4-((1-(2-(3-fluoropyrrolidin-1-yl)ethyl)-2-methyl-1H-indol-3-yl)methyl)-N-hydroxybenzamide]	32 nM	7140 nM
Cc1c(Cc2ccc(C(=O)NO)cc2)c2ccccc2n1CCN1C[C@@H](C)N(CC(C)(C)F)[C@@H](C)C1 [Compound 633, 4-((1-(2-((3S,5R)-4-(2-fluoro-2-methylpropyl)-3,5-dimethylpiperazin-1-yl)ethyl)-2-methyl-1H-indol-3-yl)methyl)-N-hydroxybenzamide]	75 nM	1760 nM
CCCCN1CCC(Cn2c(C)c(Cc3ccc(C(=O)NO)cc3)c3ccccc32)CC1 [Compound 558, 4-((1-((1-Butylpiperidin-4-yl)methyl)-2-methyl-1H-indol-3-yl)methyl)-N-hydroxybenzamide]	80 nM	6110 nM
Cc1c(Cc2ccc(C(=O)NO)cc2)c2ccccc2n1CC1CCN(CC2(F)CCN(S(C)(=O)=O)CC2)CC1 [Compound 696, 4-((1-((1-((4-Fluoro-1-(methylsulfonyl)piperidin-4-yl)methyl)piperidin-4-yl)methyl)-2-methyl-1H-indol-3-yl)methyl)-N-hydroxybenzamide]	123 nM	> 10000 nM
